Where a SMILES comes first, the peptide text is derived from it. Where no end group is shown, it is not given here. The star is where a group is joined. Biotin = O=C1N[C@H]2[C@H](CS[C@H]2CCCCC(=O)*)N1
Legend:
[1] = tested on: PP1c; assay: Pull down assay of biotinylated peptides with PP1c from HeLa cell extracts; assay type: binding, human; settings: peptide 100 µM on streptavidin magnetic beads, HeLa cell lysate, 2 h 4°C, western blot with PP1 antibodies
Procedure: Biotinylated peptides were pre-incubated for 2 h at 100 µM (final concentration with lysate) and room temperature with 30 µl of streptavidin-coated immunomagnetic beads (Calbiochem, San Diego CA). During this time, 1×10^6 HeLa cells at 90% of confluence per test peptide were washed with PBS, trypsinized, harvested with PBS, washed with 1 ml of PBS, and centrifuged at 600 g and 4°C for 10 min. Cell pellets were lysed 10 min on ice with 400 µl of lysis buffer (50 mM Tris pH 7.4, 200 mM NaCl, 10 mM EDTA, 20% Glycerol, 1% Nonidet P-40, 1 mM phenylmethylsulfonyl fluoride (PMSF), 10 mM NaF, 1 mM orthovanadate, and “complete mini EDTA free” protease inhibitor cocktail from Roche). Lysates were clarified at 13,000 g for 10 min at 4°C and after rotation with supernatant at 4°C for 2 h, biotinylated peptides were pulled down with streptavidine magnetic beads and washed twice with 750 µl of lysis buffer. Bound proteins and clarified lysates were analyzed by western blotting using PP1 antibodies.

[2] = tested on: HeLa cells; assay: Quantification of peptide internalization: intracellular delivery of streptavidin-peroxidase (OPD); assay type: cell-based, human; settings: 6 hrs at 37°C, compared with TAT peptide
Procedure: Before incubation, the peptides were preincubated for 1 h with streptavidin HRP conjugate in a 4/1 ratio. Cells at 80% confluence were incubated with different concentrations of peptide in 24-well plates. After 6 h, cells were washed twice in PBS, trypsinized (Trypsin EDTA, Invitrogen) and harvested in 1 ml of PBS and counted. Cells were lysed in 300 µl of 0.1 M Tris pH 7.4, and 0.5% Nonidet P-40 buffer for 10 min on ice. A total of 50 µl of cell lysate was mixed with 50 µl of OPD buffer (51.4 mM Na2HPO4 and 24.3 mM citric acid) then mixed with 100 µl of OPD solution (one OPD tablet from Sigma (St. Louis MO) in 100 ml of OPD buffer to which 40 µl of 30% hydrogen peroxide was added just before use). After 10 to 20 min, the reaction was stopped by adding 100 µl of 1 M HCl, and optical density was read at 490 nm.

[3] = Apoptotic effect of DPT-APAF peptides (abstract only); assay type: cell-based; settings: stated in abstract only
[4] = tested on: PP1c; assay: PP1c binding of DPT-APAF peptides (abstract only); settings: stated in abstract only

## DPT-AIF4: mutated peptide of 8 accessible residues of AIF564–571 containing the F566A mutation (Biotin-VIAYLRDK)
[1]
  Co-precipitation of PP1c with biotinylated peptide: unable to co-precipitate PP1c

## CC[C@H](C)[C@H](NC(=O)[C@@H](NC(=O)CNC(=O)[C@H](CCCCN)NC(=O)CCCC[C@@H]1SC[C@@H]2NC(=O)N[C@@H]21)C(C)C)C(=O)N[C@@H](C)C(=O)N[C@@H](Cc1ccc(O)cc1)C(=O)N[C@@H](CC(C)C)C(=O)N[C@@H](CCCNC(=N)N)C(=O)N[C@@H](CC(=O)O)C(=O)N[C@@H](CCCCN)C(=O)O [DPT-AIF2] (Biotin-KGVIAYLRDK-OH)
[2]
  Ability to internalize Streptavidin-HRP conjugated molecules (in words): not DPT-AIF2

## DPT-APAF1: bi-partite cell penetrating peptide containing APAF-1_122–131 linked to DPT-sh1 peptide shuttle (RPVVFVTRKK; also: linked to DPT-sh1 shuttle peptide, junction not given here; UniProt O14727 122-131, looked up, fragment)
[3]
  Apoptotic effect: death molecule
[4]
  PP1c binding: PP1-interacting

## CC[C@H](C)[C@H](NC(=O)[C@@H](NC(=O)CNC(=O)[C@H](CCCCN)NC(=O)CCCC[C@@H]1SC[C@@H]2NC(=O)N[C@@H]21)C(C)C)C(=O)N[C@@H](Cc1ccccc1)C(=O)N[C@@H](Cc1ccc(O)cc1)C(=O)N[C@@H](CC(C)C)C(=O)N[C@@H](CCCNC(=N)N)C(=O)N[C@@H](CC(=O)O)C(=O)N[C@@H](CCCCN)C(=O)O [DPT-AIF1] (Biotin-KGVIFYLRDK-OH)
[2]
  Ability to internalize Streptavidin-HRP conjugated molecules (in words): able to internalize Streptavidin-HRP conjugated molecules even more efficiently than the well characterized positive control TAT peptide
